Measurements from publication PMC6169518 (Environmental science & technology, 2016).
“And” between values parts separate entries of the source, which are not always exact repeats. Equal values may be shown once.

Assays:
[1] = tested on: microsomal GST in human liver microsomes (HLM); assay: Kinetic analysis of GSH conjugation; assay type: in vitro ADME
[2] = tested on: cytosolic GST in mouse liver cytosols (MLC); assay: Kinetic analysis of GSH conjugation; assay type: in vitro ADME; conditions: FLC-SG formation, Michaelis-Menten
[3] = tested on: Human liver microsomes (HLM); assay: Human liver microsome incubation of FLC; conditions: 60 min
[4] = tested on: microsomal GST in mouse liver microsomes (MLM); assay: Kinetic analysis of GSH conjugation; assay type: in vitro ADME
rats = conditions: 45 and 90 days of dosing and last recovery day; cited from earlier work
[5] = Quantification of FLC in mouse serum after single oral administration; assay type: in vivo; conditions: mice
[6] = 24-h excretion of unchanged FLC in mouse urine, feces and bile; assay type: in vivo; conditions: mice, oral, 0-24 h
[7] = tested on: cytosolic GST in human liver cytosols (HLC); assay: Kinetic analysis of GSH conjugation; assay type: in vitro ADME; conditions: FLC-SG formation, Michaelis-Menten
[8] = tested on: Chinese Hamster Ovary K1 (CHO-K1) cells; conditions: cited from earlier work
[9] = rats and rabbits; cited from earlier work
mice = assay: Toxicity of FLC in mice fed diet containing 0.5% FLC for 10 days; assay type: in vivo; conditions: diet containing 0.5% FLC vs control diet
recombinant human CYPs = assay: Oxidation of FLC by a panel of human recombinant CYP isozymes; assay type: in vitro ADME; conditions: 50 nM recombinant human CYPs, 60 min
[10] = tested on: glutathione S-transferase (GST)
[11] = HLM, FLC-SG formation, Michaelis-Menten
[12] = MLM, FLC-SG formation, Michaelis-Menten

## O=C1C(Cl)C(CCl)CN1c1cccc(C(F)(F)F)c1 (racemic) [FLC, (3RS,4RS;3RS,4SR)-3-chloro-4-chloromethyl-1-(α,α,α-tri-fluoro-m-tolyl)-2-pyrrolidone]
[1]; HLM vs HLC
  maximum clearance (Vmax/Km) of GSH conjugation, HLM over HLC: approximately 5.5 fold
[1]; [11]
  Km: 374 µM
  Vmax: 5.63 pmol·min^−1·mg protein^−1
[2]
  Vmax: 4.65 pmol·min^−1·mg protein^−1
[3]; HLM supplemented with NADPH
  parent compound consumed: Approximately 30%
[3]; coincubation with GSH, NADPH and HLM
  more consumption of FLC: 40%
[4]; MLM vs MLC
  maximum clearance (Vmax/Km) of GSH conjugation, MLM over MLC: approximately 11.2 fold
[4]; [12]
  Km: 367 µM
  Vmax: 9.5 pmol·min^−1·mg protein^−1 and 9.50 pmol·min^−1·mg protein^−1
rats
  histopathological observations: testis and epididymis lesions were consistently observed
[5]; high dose group (50 mg/kg oral), 4 h post-dose
  concentration of FLC in serum: 8020 ± 2810 nM
[5]; high dose group (50 mg/kg oral), 24 h post-dose
  concentration of FLC in serum: 285 ± 76 nM
[5]; low dose group (5 mg/kg oral), 4 h post-dose
  concentration of FLC in serum: 941 ± 220 nM
[5]; low dose group (5 mg/kg oral), 24 h post-dose
  concentration of FLC in serum: 53 ± 25 nM
[6]; bile
  24-h excretion of FLC in bile: undetectable
[6]; feces
  24-h excretion rate of FLC in feces: 1.21−1.40%
[7]
  Km: 148 µM
  Vmax: 0.404 pmol·min^−1·mg protein^−1
[8]
  DNA damage: induce single-strand DNA breaks
[9]
  excretion rate of unchanged FLC: less than 1.5 % of the applied dose
mice
  Alanine transaminase (ALT): elevated significantly
mice; hepatic
  triglycerides: slightly increased
mice; liver
  aqueous peroxide: slightly increased

## O=C1C(Cl)C(CO)CN1c1cccc(C(F)(F)F)c1 (stereo not shown) [M3]
Recombinant human CYPs
  CYP isozymes catalysing formation of the metabolite from FLC: CYP1A1, 1A2, 2C8, 2C9, 2E1, and 3A4

## O=C1C(Cl)C(CCl)C(O)N1c1cccc(C(F)(F)F)c1 (stereo not shown) [M5–1]
Recombinant human CYPs
  CYP isozymes catalysing formation of the metabolite from FLC: CYP1A1, 1A2, and 3A4

## O=C1C(Cl)C(CCl)C(O)N1c1cccc(C(F)(F)F)c1 (stereo not shown) [M5–2]
Recombinant human CYPs
  CYP isozymes catalysing formation of the metabolite from FLC: CYP1A1, 1A2, and 3A4

## N[C@@H](CCC(=O)N[C@@H](CSC1C(=O)N(c2cccc(C(F)(F)F)c2)CC1CCl)C(=O)NCC(=O)O)C(=O)O (stereo partly shown) [M13]
[10]; buffer with GSH, without microsomes or cytosols
  M13 detected in buffer: trace amount
[10]; microsomes vs cytosols, with GSH
  formation of M13 in microsomes relative to cytosols: more than 2 fold
